According to patent publication EP4537846A2, “ANAVEX2-73 FOR THE TREATMENT OF ALZHEIMER S DISEASE” (priority 2017, dated 2018):

How the values were obtained:
[1] = test system: healthy male volunteers; assay: Randomized, placebo-controlled single ascending dose Phase 1 study; type: in vivo
Experimental: See Poster: A Phase 1 Dose Escalation Study to Investigate Safety, Tolerability, and Pharmacokinetics of ANAVEX2-73 in Healthy Male Subjects, CNS Summit 2014, Boca Raton, FL, by Ole Voges, Ingo Weigmann, Norman Bitterlich, Christoph Schindler and Christopher Missling. […] Based on the frequency and intensity of […] adverse events (TEAEs) the maximum tolerable dose (MTD) and the minimum intolerable dose (MID) were defined as 55 mg and 60 mg, respectively.

[2] = test system: mild-to-moderate Alzheimer's disease patients; assay: Phase 2a clinical trial: event related potentials (ERP), auditory P300, three-stimulus oddball paradigm; type: in vivo
Experimental: (§1) The 36-day multicenter randomized clinical trial included both male and female mild-to-moderate Alzheimer's disease patients. ANAVEX2-73 was administered to twelve subjects as an add-on therapy to the donepezil current standard of care. ANAVEX2-73 was administered according to a two-period on-off-on cross-over dosing regimen in which the subjects were administered ANAVEX2-73 for 12 days (1st period) followed by a 12-day wash-out period before being administered ANAVEX2-73 for a second 12-day period (2nd period). Those subjects that were administered ANAVEX2-73 by oral administration during the 1st period were administered ANAVEX2-73 intravenously during the 2nd period, and vice versa. About half of the subjects were administered a 30 mg oral dosage form while the other half of subjects were administered a 50 mg oral dosage form. The intravenous dosage was either 3 mg or 5 mg, with about half of the subjects administered 3 mg and the other half administered 5 mg.
Resting electroencephalographic (EEG) activity and event related potentials (EEG/ERP) were used to assess the cognitive effects of ANAVEX2-73 administration. Event related potentials (ERPs) are voltage changes time-locked to some physical or mental occurrence in ongoing electrical brain activity, as recorded by EEG. Event-related potentials (ERPs) provide a sensitive and reliable measure of the cognitive effects associated with early Alzheimer's disease. […] See for example, New Encycl. Neurosci., Oxford Academic Press, p. 13-18 (2009). For example, ERP tests on young presymptomatic individuals who carry mutations in the presenilin-1 and amyloid precursor protein genes show significant changes in ERP patterns years before the onset of behavioral symptoms and the development of Alzheimer's disease. See for example, Neurology 73, 1649-1655 (2009); Neurology 77, 469-475 (2011). […] For instance, ERP markers of cognitive function are increasingly altered in longitudinal studies on individuals with mild cognitive impairment (MCI) and Alzheimer's disease patients. See for example, Clin. Neurophysiol. 122, 1322-1326 (2011); Clin. Neurophysiol. 121, 194-199 (2010). […] See for example, Neurol. Neurochir. Pol. 35 Suppl 3, 37-43 (2001); Clin. Neuropharmacol. 25, 207-215 (2002); Neurosci. Biomed. Eng. 1, 34-39 (2013).
In particular, the auditory P300 component of the ERP has been widely applied in the study of age-related cognitive dysfunction because it is thought to reflect attentional and memory processes. Auditory P300 is a positive deflection occurring at about 300 ms from stimulus onset. It is generated by the activation of multiple neocortical and limbic regions. Auditory P300 has two functionally different components, an earlier P3a component that is maximal over frontocentral regions, and a later P3b component (hereafter "P300") that is maximal at the posterior scalp locations. See for example, Int. J. of Alzheimer's Dis. 2011, Article ID 653173, 1-7 (2011). P300 amplitude data collected as part of a double blind six month study for 15 patients with mild Alzheimer's disease on donepezil, as compared to a vitamin E baseline, has shown that P300 amplitude data correlates with ADAS-Cog and MMSE data for the same patients. See, Clin. Neuropharmacol. 25(4), 207-215 (2002).
Subjects were tested using a three-stimulus oddball paradigm. Stimuli comprised of standard tones (1000 Hz), target tones (2000 Hz) and unexpected distractor tones (white noise) that were played with probabilities of 0.75, 0.15, and 0.10. Tones were presented in pseudorandom order, so that target and distractor tones were never presented sequentially. Subjects were instructed to respond to the target stimuli by pressing a button with their dominant hand. For each test, between 300 and 400 stimuli were presented binaurally through insert ear phones at 70 dB volume. The tone duration for each stimulus was 100 ms with rise and fall times of 10 ms. The interstimulus interval was randomized between 1.5 and 2 s. […]

[3] = test system: mild-to-moderate Alzheimer's disease patients; assay: Phase 2a clinical trial: EEG peak alpha frequency (PAF); type: in vivo; conditions: twelve patients, day 36 vs baseline
Experimental: as §1, with “The intravenous dosage was either 3 mg or 5 mg, with about half of the subjects administered 3 mg and the other half administered 5 mg.” left out
Resting electroencephalographic (EEG) activity and event related potentials (EEG/ERP) were used to assess the cognitive effects of ANAVEX2-73 administration. Event related potentials (ERPs) are voltage changes time-locked to some physical or mental occurrence in ongoing electrical brain activity, as recorded by EEG. […]
Subjects were tested using a three-stimulus oddball paradigm. […] Electroencephalographic (EEG) activity was recorded from seven electrode sites (Fz, Cz, Pz, F3, P3, F4, and P4) of the international 10-20 system using a COGNISION™ Headset (Neuronetrix). […]

[4] = test system: mild-to-moderate Alzheimer's disease patients; assay: Phase 2a clinical trial: MMSE and Cogstate scales; type: in vivo; conditions: preliminary; twelve subjects, on-off-on regimen
Experimental: as §1
(§2) 5-9, were achieved without any dose optimization. […] An additional 20 subjects will be studied during the remainder of the Phase 2a clinical trial. Phase 2b clinical trials, involving an additional 26-week extension of daily oral dosage administration of ANAVEX2-73 is on-going.

[5] = test system: mild-to-moderate Alzheimer's disease patients; assay: Phase 2a clinical trial: safety profile; type: in vivo; conditions: during Phase 2a trials
Experimental: as §1, §2

[6] = test system: patients with Alzheimer's disease or presenting with the early signs of Alzheimer's disease; assay: Single-patient treatment examples with intermittent dosing regimen; type: in vivo; conditions: person
Source text: The following examples show uses of ANAVEX2-73 in the treatment of patients with Alzheimer's disease or presenting with the early signs of Alzheimer's disease. The clinical determination that a patient may have Alzheimer's disease or is presenting with early signs of Alzheimer's disease is well known in the art. By way of example, the following references (and all publications cited herein) are incorporated by reference herein in their entireties: Dementia: From Diagnosis to Management - A Functional Approach 1st Edition, Psychology Press (February 17, 2009); Clinician's Guide to Psychological Assessment and Testing: With Forms and Templates for Effective Practice 1st Edition, Springer Publishing Company (September 18, 2012); Neurodegener. Dis. Manag. 5(3), 191-201 (2015); Artif. Intell. Med. 64(1), 59-74 (2015); Clin. Chem. 60(12), 1585-1586 (2014); and Metabolism 64(3 Suppl 1), S47-50 (2014).

[7] = molecular target: sigma-1 (Homo sapiens, UniProt Q99720); conditions: sigma-1 receptor; 'is believed to bind'; cited from earlier work
[8] = test system: muscarinic acetylcholine receptors; conditions: 'is believed to bind'; cited from earlier work
[9] = test system: amyloid toxicity in mice; conditions: cited from earlier work
[10] = single ascending oral doses, healthy subjects

Chain of sigma-1 (Q99720 whole entry): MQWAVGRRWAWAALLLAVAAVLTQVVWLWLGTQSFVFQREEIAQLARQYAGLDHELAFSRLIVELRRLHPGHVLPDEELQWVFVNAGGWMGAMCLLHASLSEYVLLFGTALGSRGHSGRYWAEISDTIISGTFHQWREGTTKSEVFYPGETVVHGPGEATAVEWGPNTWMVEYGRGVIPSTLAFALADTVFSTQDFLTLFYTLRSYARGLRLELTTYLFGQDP

## CN(C)CC1CCOC1(c1ccccc1)c1ccccc1.Cl (stereo not drawn) [ANAVEX2-73, tetrahydro-N,N-dimethyl-2,2-diphenyl-3-furanmethanamine hydrochloride]
[1]; ascending single oral doses of 1 mg, 10 mg, 30 mg, 40 mg, 50 mg, and 55 mg, healthy subjects
  safety and tolerability: safe and well tolerated
[1]; at highest doses
  observed adverse events: moderate and reversible dizziness and headache
[1]; male, human, in vivo, po
  minimum intolerable dose (MID): 60 mg
[1]; [10]
  Blood pressure and resting heart rate and other clinical parameters such as vital signs and 12-lead electrocardiogram (ECG): did not show any clinically relevant or dose-dependent changes
  QT interval and QTcB: did not reveal any clinically significant changes
  pharmacokinetics: suitable for daily oral dosing
  serious adverse events: No serious adverse events occurred
[1]; single oral dose, healthy male volunteers
  maximum tolerable dose (MTD): 55 mg
[2]; 10 out of the 12 patients studied
  patients with improved P300 signal: 83%
[2]; P300 amplitude, Day 36 vs baseline, twelve patients, hydrochloride
  Percentage Increase Over Baseline Data: 38%
[2]; after 1 month vs donepezil after 6 months
  percent P300 amplitude change compared to historical data for patients administered donepezil: greater
[2]; day 36 (1 month) vs donepezil at the 1 month time point
  P300 amplitude change compared to historical data for patients administered donepezil: about four times higher
[2]; target detection task, Day 36, twelve patients (baseline 2.67 ± 1.12)
  False Alarms: 0.64 ± 0.26%
[2]; target detection task, Day 36, twelve patients (baseline 86.2 ± 4.47)
  Button Press Accuracy: 87.5 ± 4.01%
[2]; target detection task, Day 36, twelve patients (baseline 593 ± 33.0)
  Median Reaction Time: 534 ± 42.0 ms
[2]; twelve patients, day 36 vs baseline, on-off-on regimen (30 or 50 mg oral, 3 or 5 mg i.v.), add-on to donepezil
  P300 ERP wave data: improved measured cognitive performance as compared to the baseline data
[3]
  peak alpha frequency (PAF): higher than the baseline measurement of PAF
[4]
  Mini Mental State Examination (MMSE) and Cogstate scale changes: consistent with the observed trend of the cognitive EEG/ERP effect
[5]
  safety profile: consistent with the Phase 1 data
[6]; 3 mg intravenously, 5 days on / 20 days off, one year
  loss of cognitive function: stabilizes
[6]; 5 mg intravenously, 14 days on / 7 days off, one year
  loss of cognitive function: stabilizes
[6]; 30 mg oral, 10 days on / 10 days off, 6 months
  loss of cognitive function: stabilizes
[6]; 50 mg oral, 10 days on / 20 days off
  loss of cognitive function: stabilizes
[6]; 50 mg oral, 14 days on / 7 days off, 6 months
  loss of cognitive function: stabilized
[7]
  affinities: low micromolar range
[8]
  affinities: low micromolar range
[9]; Aβ25-35 model
  Aβ25-35-induced P-Akt decrease and P-GSK-3β increase: blocked
  Aβ25-35-induced endogenous Aβ1-42 seeding: decrease
[9]; Aβ25-35 model, in the dose-range tested
  hyperphosphorylation of Tau on physiological epitopes (AT-8 antibody clone) and on pathological epitopes (AT-100 clone): attenuated
[9]; mice one week after i.c.v. injection of oligomeric Aβ25-35
  oxidative stress, caspases induction, cellular loss and learning and memory deficits: attenuating
